Assay [1] deals with Cytochrome P450 2D6 (Homo sapiens, UniProt P10635).
Assay [2] concerns the target T1, Cytochrome P450 1A2 (Homo sapiens, UniProt P05177).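 Further: PubChem cytochrome P450 panel assay, CYP1A2 panel member.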
T1 sequence (P05177 whole entry): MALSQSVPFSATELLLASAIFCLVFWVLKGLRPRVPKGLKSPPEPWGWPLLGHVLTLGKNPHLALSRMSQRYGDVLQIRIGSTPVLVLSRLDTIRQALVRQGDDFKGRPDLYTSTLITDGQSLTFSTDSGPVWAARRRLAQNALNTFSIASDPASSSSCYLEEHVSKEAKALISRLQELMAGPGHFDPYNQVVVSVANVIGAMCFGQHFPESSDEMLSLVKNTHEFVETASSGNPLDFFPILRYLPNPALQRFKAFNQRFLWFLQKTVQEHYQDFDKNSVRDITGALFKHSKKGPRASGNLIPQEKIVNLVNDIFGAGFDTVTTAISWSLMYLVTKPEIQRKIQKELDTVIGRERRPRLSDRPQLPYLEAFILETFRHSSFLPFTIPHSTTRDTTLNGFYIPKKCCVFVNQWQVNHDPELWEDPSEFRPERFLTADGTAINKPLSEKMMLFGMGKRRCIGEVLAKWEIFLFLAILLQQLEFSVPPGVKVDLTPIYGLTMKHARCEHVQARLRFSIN

Assay [3] is described as follows: cytotoxicity toward NIH3T3 fibroblasts, dose response, counter-screen, cell-based, ATP luminescence, mouse fibroblasts (AID 2010).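 Further: cells exposed to compound for about 90 hours before reading.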 The class given is functional.
Assay [4] in a line: inhibitors of intracellular T. cruzi replication, confirmation, NIH3T3 host cells, beta-gal luminescence (AID 2044).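 Further: intracellular parasites grown in NIH/3T3 mouse fibroblasts as host cells; luminescent beta-galactosidase reporter signal from transgenic T. cruzi replicating inside host cells; inhibitors lower the luminescence signal.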 In kind it is functional, cell-based.
Assay [5] is described as follows: Luminescence Cell-Based Dose Retest to Confirm Inhibitors of Cancer Stem Cells. [Related pubchem assays (depositor defined):AID2717, AID2721]. Particulars: Homo sapiens. The class given is functional.
Assay [6] deals with INS1. As to the kind of experiment: beta cell apoptosis inhibitors, cytokine rescue, dose response, luminescence, retest (AID 449756).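 Further: cell death triggered by IL-1 beta plus TNF-alpha plus IFN-gamma mixture; protective hits raise ATP signal compared with cytokine alone wells.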 As to conditions: Rattus norvegicus. The class given is functional, cell-based.
Assay [7] concerns the target Cytochrome P450 2C9 (Homo sapiens, UniProt P11712).

Several values for one entry are separate records, joined by “and”; a condition that tells them apart may be missing. Equal entries are not always repeated. Activity calls are given as the source filed them.

Cytochrome P450 2D6, sequence (P10635 whole entry): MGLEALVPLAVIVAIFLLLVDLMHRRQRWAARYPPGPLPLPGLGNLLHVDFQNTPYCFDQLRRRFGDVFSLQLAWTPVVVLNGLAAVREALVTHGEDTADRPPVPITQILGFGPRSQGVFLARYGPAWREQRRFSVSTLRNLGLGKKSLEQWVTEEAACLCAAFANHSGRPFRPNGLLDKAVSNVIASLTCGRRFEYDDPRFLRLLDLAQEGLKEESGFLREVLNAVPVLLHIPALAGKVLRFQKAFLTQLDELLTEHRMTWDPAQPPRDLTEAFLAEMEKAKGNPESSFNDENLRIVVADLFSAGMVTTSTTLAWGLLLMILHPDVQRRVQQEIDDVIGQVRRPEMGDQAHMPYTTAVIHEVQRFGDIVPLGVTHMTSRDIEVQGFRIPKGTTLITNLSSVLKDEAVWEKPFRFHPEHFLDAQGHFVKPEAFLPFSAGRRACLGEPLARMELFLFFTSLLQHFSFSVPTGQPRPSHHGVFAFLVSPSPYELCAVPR
Cytochrome P450 2C9, sequence (P11712 whole entry): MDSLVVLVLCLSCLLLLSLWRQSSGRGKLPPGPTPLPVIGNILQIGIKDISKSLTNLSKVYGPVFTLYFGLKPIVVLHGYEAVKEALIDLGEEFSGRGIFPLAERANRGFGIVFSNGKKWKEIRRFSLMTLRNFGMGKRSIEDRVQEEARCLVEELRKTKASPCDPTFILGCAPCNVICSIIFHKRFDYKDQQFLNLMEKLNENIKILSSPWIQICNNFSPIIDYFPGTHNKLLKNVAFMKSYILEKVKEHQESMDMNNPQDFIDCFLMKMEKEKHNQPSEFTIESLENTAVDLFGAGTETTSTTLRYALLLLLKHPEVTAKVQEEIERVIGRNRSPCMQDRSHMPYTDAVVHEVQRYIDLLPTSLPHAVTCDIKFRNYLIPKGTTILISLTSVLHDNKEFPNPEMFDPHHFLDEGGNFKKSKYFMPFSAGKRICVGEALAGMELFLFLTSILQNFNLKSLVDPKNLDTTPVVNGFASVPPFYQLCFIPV

Take `[O-][S+](Cc1ccc(Br)cc1)Cc1nnc(SCc2ccc(Cl)cc2)n1-c1ccccc1` (centres undefined): the figures for the AC50 in assay [1] and in assay [2] were 12.6 µM (inconclusive) and 25.1 µM (inconclusive), respectively.

Take `CN1CCN(S(=O)(=O)c2cc([N+](=O)[O-])ccc2N2CCCCCC2)CC1`: the AC50 in assay [2] was 25.1 µM (inconclusive).

In the case of `O=C(COc1ccc(F)cc1Cl)Nc1cc(S(=O)(=O)N2CCOCC2)ccc1N1CCCCC1`, the EC50 is > 60 µM (not active) in assay [3] and 2.56 µM (active) in assay [4].

For `CCCOc1ccc(-c2nc(N3CCN(CC)CC3)c3ccccc3n2)cc1`, in assay [5], the AC50 is 5.57 µM (active).

With `CCCCCCSc1cc(-c2nc3ccc(C)cn3c2NCCCC)ccc1OC`, the AC50 in assay [6] is 7.09 µM (active); in assay [5] it was 5.12 µM (active).

With `COc1cccc(Cn2c(=O)c(CCc3ccccc3)nc3cnc(N4CCNCC4)nc32)c1`, the figures for the AC50 in assay [1] and in assay [2] were 31.6 µM (inconclusive) and 12.6 µM (inconclusive), respectively.

Regarding `Cc1cnc(NC(=O)CSc2ccc(Cl)cc2)s1`, in assay [7], the AC50 is 20 µM (inconclusive).

For `O=c1c(CCc2ccccc2)nc2cnc(N3CCOCC3)nc2n1Cc1cccs1`, the concentration at half-maximal activity (AC50) in assay [7] was 3.16 µM (inconclusive).

As to `O=C(Oc1ccccc1)N1CCC2(CCN(Cc3ccncc3)CC2)CC1`, the AC50 in assay [2] is 25.1 µM (inconclusive).

For `CCC(=O)c1cc(F)c(N2CCN(S(=O)(=O)c3ccc(C)cc3)CC2)cc1C`, the results for the EC50 in assay [3] and in assay [4] were > 60 µM (not active) and 2.68 µM (active), respectively.

Turning to `CN(C)C(=O)c1ccc(-c2nc(-n3ccnc3)c3ccccc3n2)cc1`, the AC50 in assay [2] is 20 µM (inconclusive).

Consider `Cc1cccc(NC(NC(=O)c2cccnc2)C(Cl)(Cl)Cl)c1` (centres undefined), for which the AC50 in assay [2] is 22.4 µM (inconclusive).

Take `O=C1C=C(c2ccc(F)cc2OCc2ccccc2)C[C@@H](c2ccc(F)cc2)C1`: in assay [5], the half-maximal activity concentration (AC50) is 0.964 µM (active).

Turning to `CCN1C(=O)C(CC(=O)Nc2ccc(F)cc2)N(CCCN2CCN(c3ccc(F)cc3)CC2)C1=S` (centres undefined), the AC50 in assay [5] is 3.1 µM (active).

On to `CC1CCN(C(=O)C(=O)c2cn(CC(=O)N3CCCCCC3)c3ccccc23)CC1`, for which the 50% effective concentration (EC50) is > 60 µM (not active) in assay [3] and 1.26 µM (active) in assay [4].

Consider `O=C1c2ccccc2C(=O)C1c1ccccc1` [PHENINDIONE], for which the AC50 in assay [2] was 15.8 µM (inconclusive).

In the case of `Cc1cc(C)c(OCC(O)CNC(C)(C)C)c(C)c1` (centres undefined), the AC50 in assay [6] is > 120 µM (inactive).

On to `COc1cccc(-c2nc(NCc3ccccc3OC)c3ccccc3n2)c1`, for which the values for the AC50 in assay [1] and in assay [7] were 10 µM (inconclusive) and 1 µM (inconclusive), respectively.

Consider `O=C(c1ccco1)N1CCC[C@@]2(CCN(c3cccc(-c4ccccc4)c3)C2)C1`, for which the AC50 in assay [1] was 25.1 µM (inconclusive).

With `COc1cc2c(cc1NC(=O)c1cccc(S(=O)(=O)N(C)C)c1)oc1ccccc12`, the AC50 in assay [5] is 2.54 µM (active).

For the compound `S=C(Nc1cccc(Br)c1)N1CCn2cccc2C1c1cccnc1` (centres undefined), the EC50 in assay [3] is > 60 µM (not active); in assay [4] it was 1.78 µM (active).

As to `Sc1nnc(C2CCCCC2)n1/N=C/c1cccs1`, the concentration at half-maximal activity (AC50) in assay [2] is 2 µM (inconclusive); in assay [7], 31.6 µM (inconclusive).

On to `O=P(Oc1ccccc1)(Oc1ccccc1)N1CCN(c2ccc(F)cc2)CC1`, for which the AC50 in assay [6] is 19.4 µM (active).

On to `O=C(NCc1cccs1)c1cc(-c2ccncc2)nc2ccc(Br)cc12`, for which the EC50 in assay [3] was > 60 µM (not active); in assay [4] it was 2.66 µM (active).

As to `COc1ccccc1/C=C(/CC(=O)NCc1ccc2c(c1)OCO2)c1nc2ccccc2s1`, the values for the EC50 in assay [3] and in assay [4] were > 60 µM (not active) and 2.19 µM (active), respectively.

For the compound `CCOC(=O)C1(Cc2cccc(OC)c2)CCCN(Cc2c(C)nn(C(C)C)c2C)C1` (centres undefined), the EC50 was > 60 µM (not active) in assay [3] and 1.19 µM (active) in assay [4].

On to `COc1ccc(Sc2ccc(-c3nc4cnccn4c3NC3CCCCC3)cc2OC)cc1`, for which, in assay [5], the AC50 was 2.93 µM (active).

On to `O=[N+]([O-])c1cccc(S(=O)(=O)N2CCC(c3nc(-c4ccncc4)no3)CC2)c1`, for which the results for the EC50 in assay [3] and in assay [4] were > 30 µM (not active) and 1.85 µM (active), respectively.

In the case of `COC(=O)c1ccc(NC(=O)CCN2CCN(Cc3ccccc3)CC2)cc1`, the results for the EC50 in assay [3] and in assay [4] were > 60 µM (inconclusive) and 0.123 µM (active), respectively.

For the compound `NC(=NCc1ccccc1)NC(=O)c1nc(Cl)c(N)nc1N` [BENZAMIL], in assay [2], the AC50 is 12.6 µM (inconclusive) and 10 µM (inconclusive).

On to `COc1ccccc1NS(=O)(=O)c1cc(NC(=O)Nc2ccc(Cl)cc2Cl)ccc1N1CCCCC1`, for which the half-maximal effective concentration (EC50) in assay [4] is 1.58 µM (active).

Regarding `COc1cccc(C2=NOC(C(=O)Nc3cccnc3)C2)c1` (centres undefined), the AC50 in assay [7] is 25.1 µM (inconclusive).

For the compound `CCC(=O)Nc1ccccc1C(=O)OCC(=O)c1cccc2ccccc12`, the AC50 in assay [1] was 0.0891 µM (inconclusive).

Consider `CN1CC[C@H](CN2c3ccccc3Sc3ccccc32)C1`, for which the AC50 in assay [2] is 5.01 µM (inconclusive).

Turning to `FC(F)(F)c1cc(CN2CCCC3(CCNCC3)C2)cc(C(F)(F)F)c1`, the AC50 in assay [1] was 12.6 µM (inconclusive).

Turning to `C[N+]1(C)CCC(=C(c2ccccc2)c2ccccc2)CC1`, the half-maximal activity concentration (AC50) in assay [1] is 12.6 µM (inconclusive).

Take `CC(C)=C[C@H]1[C@@H](C(=O)OCc2cc3c(cc2Cl)OCO3)C1(C)C`: the AC50 in assay [1] was 5.01 µM (inconclusive); in assay [2] it was 0.794 µM (inconclusive); in assay [7] it was 3.16 µM (inconclusive).

For the compound `O=C(Cn1nnc(-c2ccccc2)n1)OCc1ccccc1`, the AC50 in assay [7] is 8.91 µM (inconclusive).

As to `CC(Nc1nc(N2CCCCC2)nc2ccccc12)c1ccccc1` (centres undefined), the EC50 in assay [3] was 9.37 µM (active); in assay [4], 0.773 µM (active).

Take `Cc1cc2c(NCCc3ccccc3)ncnc2s1`: the AC50 in assay [6] is 1.98 µM (active).

Consider `CCOc1cc(N2CCOCC2)c(OCC)cc1NC(=O)c1ccc2ccccc2n1`, for which the half-maximal effective concentration (EC50) in assay [3] is 7.58 µM (active); in assay [4], 2.63 µM (active).

Turning to `Fc1ccc(CN2CCCN(Cc3nc(-c4ccc5c(c4)OCO5)no3)CC2)cc1`, the EC50 is > 60 µM (inconclusive) in assay [3] and 0.103 µM (active) in assay [4].

Regarding `CSc1cccc(NC(=S)N(CCCN2CCCC2)Cc2cccn2Cc2ccc(Cl)cc2)c1`, the EC50 in assay [3] is > 60 µM (not active); in assay [4] it was 2.25 µM (active).

Consider `CCOc1ccccc1N1CCN(c2ncnc3scc(-c4ccc(OC)cc4)c23)CC1`, for which the EC50 in assay [3] was > 60 µM (not active); in assay [4] it was 2.44 µM (active).

In the case of `CCN(CC)S(=O)(=O)c1ccc(N2CCN(c3ccccc3OC)CC2)c(N)c1`, the AC50 in assay [6] is 3.55 µM (active).

Consider `c1cc(CN2CCCCC2)cc(OCCCNc2nc3ccccc3s2)c1` [ZOLANTIDINE], for which the AC50 in assay [2] was 31.6 µM (inconclusive) and 15.8 µM (inconclusive).

Turning to `Cc1ccc(-c2nc3cc(Br)cnc3nc2-c2ccc(C)cc2)cc1`, the EC50 in assay [3] is > 60 µM (not active); in assay [4], 2.68 µM (active).

With `CCN(CC)c1ccc(S(=O)(=O)N2CCCCC2)cc1NC(=O)C1=COCCO1`, the figures for the EC50 in assay [3] and in assay [4] were > 60 µM (not active) and 7.54 µM (active), respectively.

Regarding `CC(=O)c1c(C)n(CC(=O)NCc2ccco2)c2ccccc12`, the AC50 in assay [6] was > 260 µM (inactive).

With `CCn1c(N2CCN(S(=O)(=O)c3ccc(F)cc3)CC2)nc2ccccc21`, the AC50 in assay [5] is > 195 µM (inactive).

Turning to `O=C(/C=C\NCC(=O)c1ccccc1)c1ccc(F)cc1`, the AC50 in assay [1] was 15.8 µM (inconclusive); in assay [7], 22.4 µM (inconclusive).

For the compound `O=C(CSc1ncnc2c1nnn2Cc1ccc(F)cc1)NC1CCCC1`, the EC50 is > 30 µM (not active) in assay [3] and 3.93 µM (active) in assay [4].

For `CS(=O)(=O)Nc1cccc(-c2cncnc2NCc2ccccc2)c1`, the AC50 in assay [1] was 20 µM (inconclusive).

Consider `C=C[C@@H]1c2cccc(C)c2N(S(=O)(=O)c2ccc(C)cc2)[C@H](c2ccc(OC(C)=O)cc2)C1(C#N)C#N`, for which, in assay [5], the AC50 is 5.13 µM (active).

On to `Cc1ccc(-n2c(C)cc(C(=O)CSc3n[nH]c(N)n3)c2C)cc1`, for which, in assay [7], the AC50 is 6.31 µM (inconclusive).

Regarding `C=CCN1C(=O)CN=C1Nc1ccccc1`, the AC50 in assay [2] was 28.2 µM (inconclusive); in assay [7], 0.0708 µM (inconclusive).

Turning to `COc1ccc(-n2c(S)nnc2CNC(=O)c2ccc(S(=O)(=O)N3CCCC3)cc2)cc1`, the AC50 in assay [7] was 20 µM (inconclusive).

Regarding `COc1ccc(-n2nnnc2SCC(=O)Nc2ccccc2)cc1`, the AC50 in assay [1] was 2.51 µM (inconclusive).

In the case of `CC1(C)CC(NCCN2CCN(C3=CC(=C(C#N)C#N)CC(C)(C)C3)CC2)=CC(=C(C#N)C#N)C1`, the EC50 was > 60 µM (not active) in assay [3] and 1.31 µM (active) in assay [4].

On to `O=C(NCCOCCOCCNC(=O)c1cccnc1)c1cccnc1`, for which, in assay [6], the AC50 was 2.55 µM (active).

Consider `O=C(NCC1CCCCC1)c1cc2ccccc2cc1O`, for which the AC50 in assay [5] was 5.19 µM (active).

As for `CN(C)c1ncc2ncc(=O)n(CCc3ccccc3)c2n1`, in assay [1], the AC50 is 39.8 µM (inconclusive).

The values are drawn from ChEMBL document CHEMBL1201862, “PubChem BioAssay data set” (2004).
